# In PubChem BioAssay (NCI):
# Values joined by “and” are separate entries in the source; they are usually repeats but may differ in a detail not shown here. Equal values may be shown once.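 Exposure lasted 48 hours, with cells grown in 96-well plates and compounds tested at five concentrations. At the GI50, growth is halved. Definition used: TGI = concentration required for complete inhibition of growth.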
# Key:
# Assay in all cases: growth of human tumour cells (NCI), 48 h
# SK-MEL-2 melanoma = system: SK-MEL-2 melanoma
# HOP-62 NSCLC = system: HOP-62 NSCLC
# UO-31 renal = system: UO-31 renal
# NCI-H522 lung = system: NCI-H522 lung
# A498 renal = system: A498 renal
# SNB-19 CNS = system: SNB-19 CNS
# TK-10 renal = system: TK-10 renal
# EKVX NSCLC = system: EKVX NSCLC
Structure (SMILES),GI50 (SK-MEL-2 melanoma) [µM],TGI (SK-MEL-2 melanoma) [µM],GI50 (HOP-62 NSCLC),TGI (HOP-62 NSCLC),GI50 (UO-31 renal),TGI (UO-31 renal) [µM],GI50 (NCI-H522 lung) [µM],TGI (NCI-H522 lung) [µM],GI50 (A498 renal) [µM],TGI (A498 renal) [µM],GI50 (SNB-19 CNS) [µM],TGI (SNB-19 CNS) [µM],GI50 (TK-10 renal) [µM],TGI (TK-10 renal) [µM],TGI (EKVX NSCLC) [µM],GI50 (EKVX NSCLC)
C1C[OH+]CCNCC[OH+]CC[OH+]CCN1.N.[Cl-].[Pt+4],47.2,> 100,> 100 µM,> 100 µM,20.5 µM,80,14.2,48.7,64.6,> 100,> 100,> 100,49.5,> 100,–,–
NNc1nc2ccccc2o1,–,> 100,–,–,–,> 100,–,> 100,–,> 100,–,> 100,–,> 100,> 100,–
O=C1c2cc3c(cc2-c2c1c1ccc(F)cc1c(=O)n2C[C@H](O)[C@H](O)[C@H](O)CO)OCO3,0.233,0.596,0.112 µM,0.52 µM,–,–,0.0313,0.228,0.142,0.327,0.0927,> 100,0.248,0.873,4.63,0.357 µM
O=c1cc(-c2ccccc2)oc2c1ccc1ccccc12,74.7,> 100,29.6 µM,> 100 µM,8.55 µM,> 100,30.5,> 100,11.1,44.1,6.1,> 100,28.2,65,–,–
OCCN(CCO)c1nc(N2CCCCC2)c2nc(N(CCO)CCO)nc(N3CCCCC3)c2n1,–,> 100,–,> 100 µM,–,> 100,–,39.6,–,–,–,–,–,64.6,> 100,–
CCOC(=O)c1c(-c2ccc(OC)c(O)c2)c(C#N)c(=S)n(C2OC(COC(C)=O)C(OC(C)=O)C(OC(C)=O)C2OC(C)=O)c1-c1ccccc1 (stereo not given),–,–,26.5 µM and > 100 µM,72.2 µM and > 100 µM,37 µM and > 100 µM,> 100,–,45.7,–,> 100,–,> 100,–,–,> 100,45.4 µM and > 100 µM
O=C(CCCC(=O)N/N=C/c1cc(Cl)ccc1O)N/N=C\c1cc(Cl)ccc1O,> 100,> 100,5.05 µM,> 100 µM,1.24 µM,> 100,3.62,> 100,55,> 100,4.42,> 100,–,–,–,–
O=C1OC(c2ccc(Cl)cc2)=N/C1=C\c1ccccc1,–,> 100,–,> 100 µM,–,> 100,–,> 100,–,–,–,> 100,–,> 100,> 100,–
COc1ccc(C2=NN(C(C)=O)C(c3ccc(Oc4ccnc5cc(Cl)ccc45)c(OC)c3)C2)cc1 (stereo not given),7.13,26.7,3.37 µM,13.1 µM,> 100 µM,> 100,7.57,> 100,15.2,92.2,26.8,> 100,–,–,> 100,51.7 µM
CCn1c(SCC(=O)Nc2cc(C(F)(F)F)ccc2Cl)nc2ccccc2c1=O,24.6,72.3,14.6 µM,33.5 µM,28.4 µM,> 100,–,–,16.4,59.2,32.8,> 100,23.7,66.2,–,–
Cc1nc2ccccc2c(/C=C/c2ccccc2)c1C(=O)/C=C/c1ccc(C(F)(F)F)cc1,1.87,3.95,–,–,1.07 µM,2.26,1.6,6.32,1.75,3.18,1.65,3.05,2.35,4.04,3.11,1.56 µM
O=C(c1ccc2ccccc2c1)c1c(C(F)(F)F)n([O-])c2cc(C(F)(F)F)ccc2[n+]1=O,2.02,3.86,1.92 µM,3.72 µM,1.36 µM,2.7,1.55,3.09,–,–,1.88,3.43,1.68,3.06,3.43,1.57 µM
COc1ccc2c(c1)C(=O)c1c-2c(N2CCN(C(=O)CCNCCNCCN)CC2)nc2ccccc12,12.4,37,2.93 µM,7.51 µM,10.5 µM,30.4,11.2,41.1,16.9,33.7,15,39.8,18.4,42.1,–,–
O=C(c1ccccc1)C1OC1C(=O)c1ccccc1 (stereo not given),2.66,9.53,–,–,8.09 µM,85.6,0.323,2.24,19.7,> 100,14.1,> 100,1.86,8.37,> 100,6.68 µM
